Series [1] can be described thus: Epimerization at neutral pH followed by 1H NMR in D2O. The format is physicochemical. As to conditions: room temperature, after one week. How it is done: To measure the rate of epimerization of the nucleoside at neutral pH, a sample was dissolved in D2O and stored at room temperature. The ^1H NMR was measured after several time intervals. […] In particular, the NMR signal arising from H-6 of the heterocycle remained unchanged.

Test in series [2]: not given
The source holds these as a separate data set.

SMILES strings stand for the structures.

As to `Nc1[nH]c(=O)c([C@H]2C[C@H](O)[C@@H](CO)O2)cc1[N+](=O)[O-]`, the “pseudo first order rate constant of initial epimerization, kpH2” value (pH 2.0, 37° C., aqueous) is recorded as “≈ 10^−4 s^−1”. Further, the “slope of replot of logk versus pH” value (pH 2.0 to 5.0, 37° C.) was −0.971. Moreover, the “pseudo first order rate constant of initial epimerization, kpH5” value (pH 5.0, 37° C., aqueous) is on record as “≈ 2×10^−7 s^−1”. Further, the “epimerization at high pH” value (pH 11.0, 23° C., 14 days, HPLC) is recorded as “no epimerization was detected”. Moreover, the “change of 1H NMR spectrum (epimerization)” value in series [1] is “did not change”. The “fraction protonated at physiological pH” value in series [2] is listed as more than 80%.
On to `Nc1[nH]c(=O)c([C@H]2C[C@H](O)[C@@H](CO)O2)cc1[N+](=O)[O-]` [nucleoside 4, 6-amino-5-nitro-3-(1′-beta-D-2′-deoxyribofuranosyl)-2(1H)-pyridone], for which, for the setting “buffer, 336 h, pH 2”, the “"end" value: fraction of starting material remaining at end of reaction” value was 0.09.

Values taken from patent US8053212B1, “Non-standard nucleoside analogs with reduced epimerization” (priority 2004, dated 2011).
